The values that follow come from US20220306609A1, “BICYCLIC COMPOUNDS AS ANDROGEN RECEPTOR MODULATORS” (NIDO BIOSCIENCES, INC., priority 2021, published 2022).

SMILES strings stand for the structures.

The target of the assay is T1, androgen receptor (AR) (Homo sapiens, UniProt P10275, T878A).
T1 construct: LNCaP cells expressing ARR2PB-FireflyLuc and CMV-RenillaLuc; endogenous in cells; host or cells: LNCaP
T1 sequence (P10275 1-920 T878A): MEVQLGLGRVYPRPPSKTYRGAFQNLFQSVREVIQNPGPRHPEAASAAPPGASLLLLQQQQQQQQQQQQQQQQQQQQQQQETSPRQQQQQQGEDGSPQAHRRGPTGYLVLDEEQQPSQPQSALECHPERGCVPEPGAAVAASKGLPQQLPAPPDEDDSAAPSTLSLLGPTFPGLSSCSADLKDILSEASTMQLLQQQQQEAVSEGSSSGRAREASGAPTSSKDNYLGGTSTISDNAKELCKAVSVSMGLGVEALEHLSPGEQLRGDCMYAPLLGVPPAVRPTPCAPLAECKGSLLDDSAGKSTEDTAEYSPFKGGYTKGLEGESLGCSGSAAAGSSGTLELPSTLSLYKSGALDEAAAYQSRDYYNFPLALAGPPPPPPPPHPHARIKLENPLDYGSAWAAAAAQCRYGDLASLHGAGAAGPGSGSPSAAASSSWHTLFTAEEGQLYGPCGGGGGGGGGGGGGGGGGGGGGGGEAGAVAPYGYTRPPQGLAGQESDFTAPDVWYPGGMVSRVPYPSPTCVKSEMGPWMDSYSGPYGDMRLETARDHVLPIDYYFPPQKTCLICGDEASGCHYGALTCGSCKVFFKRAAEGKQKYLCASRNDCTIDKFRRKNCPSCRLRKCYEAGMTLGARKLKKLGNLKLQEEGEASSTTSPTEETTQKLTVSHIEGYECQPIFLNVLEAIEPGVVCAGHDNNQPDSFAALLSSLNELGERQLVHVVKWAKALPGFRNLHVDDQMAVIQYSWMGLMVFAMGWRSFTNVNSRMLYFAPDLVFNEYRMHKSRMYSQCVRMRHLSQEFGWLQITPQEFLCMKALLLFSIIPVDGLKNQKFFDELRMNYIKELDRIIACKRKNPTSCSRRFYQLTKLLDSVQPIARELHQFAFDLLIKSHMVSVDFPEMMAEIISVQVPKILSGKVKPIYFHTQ
In words: LNCaP ARR2PB-FireflyLuc / CMV-RenillaLuc reporter assay, antagonist mode. The settings on record: LNCaP cells expressing ARR2PB-FireflyLuc and CMV-RenillaLuc; +/- 0.5 nM DHT; 48 h at 37° C. Format: cell-based. On the procedure:
LNCaP cells expressing ARR2PB-FireflyLuc and CMV-RenillaLuc were treated with indicated concentrations of test compounds, enzalutamide ([…]), or DHT (positive control)+/−0.5 nM DHT for 48 h at 37° C. Fluorescent signals were read with the ImageXpress Micro Confocal System. Remaining activity (antagonist mode) was calculated as % Remaining Activity=100×[(ReadSample−[…])/(HCave−LCave)] where HC is cells treated with 0.5 nM DHT only and LC is cells treated with 10 uM enzalutamide+0.5 nM DHT. Activation (agonist mode) was calculated as % Activation=100×[(ReadSample−LCave)/(HCave−LCave)] where HC is cells treated with 1 uM DHT and LC is cells treated with DMSO. Dose response curves and IC50 values were calculated using non-linear regression analysis in XLfit.
The designation “A” indicates an IC50 value of >10 μM, “B” indicates an IC50 value between 1 μM and 10 μM; “C” indicates an IC50 value between 100 nM and 1 μM; and “D” indicates an IC50 value of less than 100 nM.

Broadly, the IC50 is the point on the concentration scale where inhibition reaches its midpoint. Higher therefore signals weaker potency. On to `CCN1N=C(c2c[nH]c3c(C#N)cccc23)CCC1=O` [Compound 001, 3-(1-ethyl-6-oxo-4,5-dihydropyridazin-3-yl)-1H-indole-7-carbonitrile], for which the IC50 fell in the range of 0.1 to 1 µM.
The figure for `CCn1nc(-c2c[nH]c3c(C#N)cccc23)ccc1=O` [Compound 002, 3-(1-ethyl-6-oxopyridazin-3-yl)-1H-indole-7-carbonitrile] is less than 0.1 µM; for `CCn1nc(-c2c[nH]c3c(Cl)nccc23)ccc1=O` [Compound 003, 6-[7-chloro-1H-pyrrolo[2,3-c]pyridin-3-yl]-2-ethylpyridazin-3-one] it is greater than 10 µM.
The result for `N#Cc1cccc2c(-c3ccc(=O)n(CC(F)F)n3)c[nH]c12` [Compound 004, 3-[1-(2,2-difluoroethyl)-6-oxopyridazin-3-yl]-1H-indole-7-carbonitrile] reads 0.1 to 1 µM; that for `CCn1nc(-c2c[nH]c3c(C#N)cccc23)c(C)cc1=O` [Compound 005, 3-(1-ethyl-4-methyl-6-oxopyridazin-3-yl)-1H-indole-7-carbonitrile], 1 to 10 µM.
The figure for `CCn1nc(-c2c[nH]c3c(C#N)cccc23)cc(OC)c1=O` [Compound 006, 3-(1-ethyl-5-methoxy-6-oxopyridazin-3-yl)-1H-indole-7-carbonitrile] is 1 to 10 µM; for `CCn1cc(-c2c[nH]c3c(C#N)cccc23)cn1` [Compound 007, 3-(1-ethylpyrazol-4-yl)-1H-indole-7-carbonitrile] it is 1 to 10 µM; for `CCn1ccc(-c2c[nH]c3c(C#N)cccc23)n1` [Compound 008, 3-(1-ethylpyrazol-3-yl)-1H-indole-7-carbonitrile] it is less than 0.1 µM.
Regarding `N#Cc1cccc2c(-c3ccn(C4CC4)n3)c[nH]c12` [Compound 009, 3-(1-cyclopropylpyrazol-3-yl)-1H-indole-7-carbonitrile], the IC50 fell in the range of 0.1 to 1 µM.
The result for `CC(C)(O)Cn1ccc(-c2c[nH]c3c(C#N)cccc23)n1` [Compound 010, 3-[1-(2-hydroxy-2-methylpropyl)pyrazol-3-yl]-1H-indole-7-carbonitrile] reads greater than 10 µM.
As to `CCn1nc(-c2c[nH]c3c(C#N)cccc23)cc1C` [Compound 011, 3-(1-ethyl-5-methylpyrazol-3-yl)-1H-indole-7-carbonitrile], the IC50 was in the range of 0.1 to 1 µM.
In the case of `CCn1nc(C)cc1-c1c[nH]c2c(C#N)cccc12` [Compound 012, 3-(2-ethyl-5-methylpyrazol-3-yl)-1H-indole-7-carbonitrile], the IC50 was less than 0.1 µM.
